Test results from patent US20250108119A1, “NOVEL STEROID PAYLOADS, STEROID LINKERS, ADCs CONTAINING AND USE THEREOF” (IMMUNEXT, INC., priority 2021, published 2025).
Where two headings read alike, the source gives them in different places.

Columns and labels:
[1] = system: peritoneal resident macrophages (PRM); assay: In vivo treatment/ex vivo PRM activation, TNFα and IL-6 in supernatant; design: species or system hVISTA mice; settings: linker/payloads as anti-VISTA conjugates
Procedure: Based thereon we developed a model to allow us to evaluate long-term anti-inflammatory impact of ADC on specific target populations, such as PRMs. […] In the absence of GC treatment, after 2h PRMs become highly activated as shown by increases in cytokine production. […] The objective of these studies was to evaluate the efficacy and pharmacodynamic range of INX human VISTA antibodies conjugated to a glucocorticoid payload as compared to free Dex.
After euthanasia, mice were injected in the peritoneal cavity with 7 ml of PBS/0.5% BSA/2 mM EDTA. After a brief massage of the peritoneum, a small incision was performed and the peritoneal lavage collected. PRM were isolated using negative selection (Miltenyi kit, ref 130-110-434). Spleen were dissected and dissociated mechanically; monocytes were isolated using […] (Stem Cell, EasySep™ Mouse CD11b Positive Selection Kit II).
PRMs were resuspended in RPMI 1640 with 10% FBS, 10 mM Hepes, Penicillin/Streptomycin and glutamine and 100,000 cells were plated per well in a 96-well tissue culture plate. Supernatants were collected at 2 and 24h post plating and stored at −80° C. […]
• BioLegend (cat #430904) ELISA MAX Deluxe Set Mouse TNF-α • BioLegend (cat #431304) ELISA MAX Deluxe Set Mouse IL-6
ELISAs were conducted following the manufacturer's included protocol.

[2] = system: LPS stimulated human PBMCs; assay: LPS stimulated human PBMC, IL-1β and IL-6 ELISA; assay type: cell-based; settings: for inhibition of huIL1-β: Experiment 7: free payload, INX-SM-43 100-0.032 nM, INX-SM-44 1000-0.32 nM; for inhibition of IL-1β production: Experiment 8: free payload 1000-0.5 nM
Procedure, shortened: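 Human PBMC (1-2 healthy donors), 150,000 cells/well, treated with test agents at 1,000 nM down to 1 nM or 0.2 nM, in duplicate. LPS at 1 ng/ml added immediately after free payload or 4 h after conjugates; IL-1β and IL-6 in supernatants measured by ELISA.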

human PBMC = assay: Cytokine production (IL-1β, IL-6) at 24 hr by human PBMC incubated with 1 ng/mL LPS; assay type: cell-based; settings: free steroid payloads, serial dilutions, 1 ng/mL LPS, 24 hr
Procedure: FIG. 51: INX-SM-3, INX-SM-4, and INX-SM-1 inhibit IL-1β (left) and IL-6 (right) production. Cytokine levels were measured at 24 hr for human PBMCS incubated with 1 ng/mL LPS and serial dilutions (1000-1 nM) of steroid payloads, with the no treatment control plotted on the log-scale x-axis at <1 nM; n=1 donor, standard deviation plotted from technical duplicates.
FIG. 52: INX-SM-1, INX-SM-3, INX-SM-4 and INX-SM-6 inhibit IL-1β production. Cytokine levels measured at 24 hr for human PBMCS incubated with 1 ng/ml LPS and serial dilutions (1000-1 nM) of steroid payloads, with the no treatment control plotted on the log-scale x-axis at <1 nM; n=1 donor, standard deviation plotted from technical duplicates.
FIG. 53: INX-SM-9, INX-SM-31 and INX-SM-35 inhibit IL-1β (top) and IL-6 (bottom) production. Cytokine levels measured at 24 hr for human PBMCS incubated with 1 ng/mL LPS and serial dilutions (1000-0.2 nM) of steroid payloads, with the no treatment control plotted on the log-scale x-axis at <0.2 nM; n=2 donors-representative donor shown. Standard deviation plotted from technical duplicates.
FIG. 54: INX-SM-32 inhibits IL-1β (top) and IL-6 (bottom) production. Cytokine levels measured at 24 hr for human PBMCS incubated with 1 ng/mL LPS and serial dilutions (500-1 nM) of steroid payloads, with the no treatment control plotted on the log-scale x-axis at <1 nM; n=2. Representative donor shown. Standard deviation plotted from technical duplicates.
Cytokine levels measured at 24 hr for human PBMCS incubated with 1 ng/ml LPS and serial dilutions (1000-0.5 nM) of steroid payloads, with the no treatment control plotted on the log-scale x-axis at <0.5 nM; n=1 donor, standard deviation plotted from technical duplicates.
FIG. 56: INX-SM-2 and INX-SM-7 show inhibition in IL-1β. Average Cytokine levels measured at 24 hr for human PBMCS incubated with 1 ng/ml LPS and serial dilutions (1000-0.16 nM) of steroid payloads, with the no treatment control plotted on the log-scale x-axis at <0.16 nM; n=1, standard deviation plotted from technical duplicates. […]
Average cytokine levels measured at 24 hr for human PBMC incubated with 1 ng/ml LPS and serial dilutions (100-0.032 nM) of glucocorticoid payloads; n=1, mean of technical duplicates.
Average cytokine levels measured at 24 hr for human PBMC incubated with 1 ng/mL LPS and serial dilutions (1000-0.32 nM) of glucocorticoid payloads; n=1, mean of technical duplicates.
Cytokine levels measured at 24 hr for human PBMC incubated with 1 ng/mL LPS and serial dilutions (1000-0.5 nM) of steroid payloads, with the no treatment control plotted on the log-scale x-axis at <0.5 nM; n=1 donor, mean of technical duplicates plotted.
Average cytokine levels for A. hull-1β B. huIL-6 measured at 24 hr for human PBMC incubated with 1 ng/mL LPS and serial dilutions (1000-0.16 nM) of conjugated steroid linker payloads, with the no treatment control plotted on the log-scale x-axis at <0.16 nM; n=1, standard deviation plotted from technical duplicates. Values above the ULOQ (12,500 pg/mL for IL-1b and 150,000 pg/mL for IL-6) were plotted as the extrapolated value.
Average cytokine levels for IL-1β measured at 24 hr for human PBMC incubated with 1 ng/mL LPS and serial dilutions (1000-0.16 nM) of conjugated steroid linker payloads, with the no treatment control plotted on the log-scale x-axis at <0.16 nM; n=1, mean plotted of technical duplicates
Average cytokine levels for IL-1β measured at 24 hr for human PBMC incubated with 1 ng/mL LPS and serial dilutions (1000-0.16 nM) of conjugated steroid linker payloads, with the no treatment control plotted on the log-scale x-axis at <0.16 nM; n=1, mean plotted of technical duplicates.
FIG. 66: Analogs of INX V are potent relative to INX231J. […]

[3] = Experiment 12: free payloads 1000-0.15 nM

| SMILES | inhibition of IL-1β production (human PBMC) | inhibition of IL-6 production (human PBMC) | other results |
| --- | --- | --- | --- |
| C[C@]12C=CC(=O)C=C1CC[C@@H]1[C@@H]2[C@@H](O)C[C@@]2(C)[C@H]1C[C@H]1O[C@@H](c3ccc(Cc4cccc(NC(=O)[C@H](CCC(=O)O)NC(=O)CNC(=O)CBr)c4)cc3)O[C@]12C(=O)CO [INX J, (S)-4-(2-(2-bromoacetamido)acetamido)-5-((3-(4-((6aR,6bS,7S,8aS,8bS,10R,11aR,12aS,12bS)-7-hydroxy-8b-(2-hydroxyacetyl)-6a,8a-dimethyl-4-oxo-2,4,6a,6b,7,8,8a,8b,11a,12,12a,12b-dodecahydro-1H-naphtho[2′,1′:4,5]indeno[1,2-d][1,3]dioxol-10-yl)benzyl)phenyl)amino)-5-oxopentanoic acid, reference compound] | – | – | potency in PRM cytokine model when dosed 7 days early (conclusions) [1]: show similar potency when dosed 7 days early |
| C[C@]12C=CC(=O)C=C1CC[C@@H]1[C@@H]2[C@@H](O)C[C@@]2(C)[C@H]1C[C@H]1CN(c3ccc(Cc4cccc(N)c4)cc3)C[C@]12C(=O)CO [INX-SM-40, (6aR,6bS,7S,8aS,8bS,11aR,12aS,12bS)-10-(4-(3-aminobenzyl)phenyl)-7-hydroxy-8b-(2-hydroxyacetyl)-6a,8a-dimethyl-1,6a,6b,7,8,8a,8b,9,10,11,11a,12,12a,12b-tetradecahydronaphtho[2′,1′:4,5]indeno[1,2-c]pyrrol-4 (2H)-one] | weakly inhibit | weakly inhibit | inhibition of IL-1β and IL-6 [2, 3]: weakly inhibit IL-1β and IL-6 |
| C[C@]12C=CC(=O)C=C1CC[C@@H]1[C@@H]2[C@@H](O)C[C@@]2(C)[C@H]1C[C@H]1O[C@@H](c3ccc(OC4CC5(CC(N)C5)C4)cc3)O[C@]12C(=O)CO (stereo partly drawn) [INX-SM-43, (6aR,6bS,7S,8aS,8bS,10R,11aR,12aS,12bS)-10-(4-((6-aminospiro[3.3]heptan-2-yl)oxy)phenyl)-7-hydroxy-8b-(2-hydroxyacetyl)-6a,8a-dimethyl-1,2,6a,6b,7,8,8a,8b,11a,12, 12a,12b-dodecahydro-4H-naphtho[2′,1′:4,5]indeno[1,2-d][1,3]dioxol-4-one] | moderate inhibition | – | inhibition of huIL1-β [2]: moderate inhibition of huIL1-β |
| C[C@]12C=CC(=O)C=C1CC[C@@H]1[C@@H]2[C@@H](O)C[C@@]2(C)[C@H]1C[C@H]1O[C@@H](c3ccc(OC4CC5(CC(N)C5)C4)cc3F)O[C@]12C(=O)CO (stereo partly drawn) [INX-SM-44, (6aR,6bS,7S,8aS,8bS,10R,11aR,12aS,12bS)-10-(4-((6-aminospiro[3.3]heptan-2-yl)oxy)-2-fluorophenyl)-7-hydroxy-8b-(2-hydroxyacetyl)-6a,8a-dimethyl-1,2,6a,6b,7,8,8a,8b,11a,12,12a,12b-dodecahydro-4H-naphtho[2′,1′:4,5]indeno[1,2-d][1,3]dioxol-4-one] | moderate inhibition | – | inhibition of huIL1-β [2]: moderate inhibition of huIL1-β |
| C[C@]12C=CC(=O)C=C1CC[C@@H]1[C@@H]2[C@@H](O)C[C@@]2(C)[C@H]1C[C@H]1O[C@@H](c3ccc(CC4CC(N)C45CCC5)cc3)O[C@]12C(=O)CO (stereo partly drawn) [INX-SM-45, (6aR,6bS,7S,8aS,8bS,10R,11aR,12aS,12bS)-10-(4-((3-aminospiro[3.3]heptan-1-yl)methyl)phenyl)-7-hydroxy-8b-(2-hydroxyacetyl)-6a,8a-dimethyl-1,2,6a,6b,7,8,8a,8b,11a,12,12a,12b-dodecahydro-4H-naphtho[2′,1′:4,5]indeno[1,2-d][1,3]dioxol-4-one 2,2,2-trifluoroacetate] | more modest inhibition | – | inhibition of IL-1β production [2]: more modest inhibition of cytokine production |
| C[C@]12C=CC(=O)C=C1CC[C@@H]1[C@@H]2[C@@H](O)C[C@@]2(C)[C@H]1C[C@H]1O[C@@H](c3ccc(CC4CC45CCC(N)CC5)cc3)O[C@]12C(=O)CO (stereo partly drawn) [INX-SM-46, (6aR,6bS,7S,8aS,8bS,10R,11aR,12aS,12bS)-10-(4-((6-aminospiro[2.5]octan-1-yl)methyl)phenyl)-7-hydroxy-8b-(2-hydroxyacetyl)-6a,8a-dimethyl-1,2,6a,6b,7,8,8a,8b,11a,12,12a,12b-dodecahydro-4H-naphtho[2′,1′:4,5]indeno[1,2-d][1,3]dioxol-4-one 2,2,2-trifluoroacetate] | more modest inhibition | – | inhibition of IL-1β production [2]: more modest inhibition of cytokine production |
| C[C@]12C=CC(=O)C=C1CC[C@@H]1[C@@H]2[C@@H](O)C[C@@]2(C)[C@H]1C[C@H]1O[C@@H](c3ccc(CC4CC5(CNC5)C4)cc3)O[C@]12C(=O)CO [INX-SM-47, (6aR,6bS,7S,8aS,8bS,10R,11aR,12aS,12bS)-10-(4-((2-azaspiro[3.3]heptan-6-yl)methyl)phenyl)-7-hydroxy-8b-(2-hydroxyacetyl)-6a,8a-dimethyl-1,2,6a,6b,7,8,8a,8b,11a,12,12a,12b-dodecahydro-4H-naphtho[2′,1′:4,5]indeno[1,2-d][1,3]dioxol-4-one 2,2,2-trifluoroacetate] | weakly inhibit | weakly inhibit | inhibition of IL-1β and IL-6 [2]: weakly inhibit IL-1β and IL-6 |
| CNC1CC(Cc2ccc([C@@H]3O[C@@H]4C[C@H]5[C@@H]6CCC7=CC(=O)C=C[C@]7(C)[C@H]6[C@@H](O)C[C@]5(C)[C@]4(C(=O)CO)O3)cc2)C1 (stereo partly drawn) [INX-SM-49, (6aR,6bS,7S,8aS,8bS,10R,11aR,12aS,12bS)-7-hydroxy-8b-(2-hydroxyacetyl)-6a,8a-dimethyl-10-(4-((3-(methylamino)cyclobutyl)methyl)phenyl)-1,2,6a,6b,7,8,8a,8b,11a,12,12a,12b-dodecahydro-4H-naphtho[2′,1′:4,5]indeno[1,2-d][1,3]dioxol-4-one] | weakly inhibit | weakly inhibit | inhibition of IL-1β and IL-6 [2, 3]: weakly inhibit IL-1β and IL-6 |
